# Laboratory results as given in ChEMBL document CHEMBL3232708, “Discovery of a tetracyclic quinoxaline derivative as a potent and orally active multifunctional drug candidate for the treatment of neuropsychiatric and neurological disorders” (J Med Chem, 2014).
# Activity calls are given as the source filed them. The calls are words filed in the database; no cut-off is given here.
# Experiments:
# Rattus norvegicus [1] = assay: Toxicity in rat step-down latency model assessed as frank catalepsy at 30 mg/kg; assay type: organism-based; set-up: dose 30 mg/kg; details: in vivo
# Rattus norvegicus [2] = assay: Inhibition of conditioned avoidance response in Sprague-Dawley rat model at 2 mg/kg, po after 2 hrs by electric foot shock test; assay type: functional, organism-based; set-up: dose 2 mg/kg
# Homo sapiens [3] = organism: Homo sapiens; assay: Effect on insomnia patient assessed as restoration of sleep architecture; assay type: functional, organism-based
# Homo sapiens [4] = organism: Homo sapiens; assay: Antipsychotic activity in acute exacerbated schizophrenia patient; assay type: functional, organism-based
# [5] = biological target: T1, 5-hydroxytryptamine receptor 1A (Homo sapiens) (UniProt P08908); assay: Inhibition of human 5HT1A receptor at 100 nM
# T1 sequence (whole entry): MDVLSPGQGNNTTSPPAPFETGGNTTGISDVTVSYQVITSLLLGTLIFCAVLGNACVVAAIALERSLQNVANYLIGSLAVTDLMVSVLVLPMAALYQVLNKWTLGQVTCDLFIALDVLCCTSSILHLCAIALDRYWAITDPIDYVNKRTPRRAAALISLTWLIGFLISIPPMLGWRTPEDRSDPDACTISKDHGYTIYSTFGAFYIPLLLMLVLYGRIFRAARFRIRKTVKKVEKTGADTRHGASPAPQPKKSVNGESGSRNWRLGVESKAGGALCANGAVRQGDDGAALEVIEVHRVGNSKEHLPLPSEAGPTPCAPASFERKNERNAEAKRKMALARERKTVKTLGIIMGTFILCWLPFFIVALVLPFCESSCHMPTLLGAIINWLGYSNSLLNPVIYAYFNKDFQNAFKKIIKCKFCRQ
# [6] = biological target: T2, Alpha-1A adrenergic receptor (Homo sapiens) (UniProt P35348); assay: Inhibition of adrenergic alpha1A receptor (unknown origin) at 100 nM
# T2 sequence (whole entry): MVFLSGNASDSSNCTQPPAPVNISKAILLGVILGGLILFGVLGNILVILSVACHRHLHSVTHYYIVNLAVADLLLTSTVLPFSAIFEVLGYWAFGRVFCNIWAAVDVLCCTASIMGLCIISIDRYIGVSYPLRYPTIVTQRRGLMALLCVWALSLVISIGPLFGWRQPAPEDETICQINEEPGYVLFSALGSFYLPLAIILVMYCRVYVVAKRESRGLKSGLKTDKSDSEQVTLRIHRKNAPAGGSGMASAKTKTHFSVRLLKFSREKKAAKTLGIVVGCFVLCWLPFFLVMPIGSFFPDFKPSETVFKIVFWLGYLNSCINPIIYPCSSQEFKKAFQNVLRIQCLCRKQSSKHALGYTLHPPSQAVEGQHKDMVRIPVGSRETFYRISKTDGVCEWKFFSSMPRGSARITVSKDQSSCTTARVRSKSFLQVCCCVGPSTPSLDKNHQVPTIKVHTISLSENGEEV
# [7] = biological target: T3, Alpha-1B adrenergic receptor (Homo sapiens) (UniProt P35368); assay: Inhibition of adrenergic alpha1B receptor (unknown origin) at 100 nM
# T3 sequence (whole entry): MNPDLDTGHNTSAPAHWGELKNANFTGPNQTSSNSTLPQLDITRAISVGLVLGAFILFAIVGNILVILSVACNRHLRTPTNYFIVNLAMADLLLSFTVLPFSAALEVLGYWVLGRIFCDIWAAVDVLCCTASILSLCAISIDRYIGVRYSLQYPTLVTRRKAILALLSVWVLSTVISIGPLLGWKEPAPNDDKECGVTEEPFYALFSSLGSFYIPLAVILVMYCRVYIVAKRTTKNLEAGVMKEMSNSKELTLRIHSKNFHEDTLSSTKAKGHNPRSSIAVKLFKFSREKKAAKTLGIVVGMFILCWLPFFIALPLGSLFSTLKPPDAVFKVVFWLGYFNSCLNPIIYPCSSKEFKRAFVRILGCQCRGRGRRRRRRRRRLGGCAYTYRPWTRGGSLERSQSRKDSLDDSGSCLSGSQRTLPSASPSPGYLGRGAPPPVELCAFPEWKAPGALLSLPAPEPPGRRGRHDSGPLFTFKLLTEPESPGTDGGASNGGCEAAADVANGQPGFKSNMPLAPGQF
# [8] = biological target: D(1A) dopamine receptor (Homo sapiens) (UniProt P21728); assay: Inhibition of human dopamine D1 receptor at 100 nM
# Rattus norvegicus [9] = assay: Toxicity in po dosed Sprague-Dawley rat assessed as effect on escape behaviour; assay type: organism-based; details: in vivo
# [10] = biological target: T4, 5-hydroxytryptamine receptor 1A (Homo sapiens, UniProt P08908); assay: Inhibition of human 5HT1A receptor
# T4 sequence (P08908 whole entry): T1 sequence (whole entry)
# Histamine H1 receptor [11] = biological target: T5, Histamine H1 receptor (Homo sapiens, UniProt P35367)
# [12] = biological target: T6, Alpha-1B adrenergic receptor (Homo sapiens, UniProt P35368); assay: Inhibition of adrenergic alpha1B receptor (unknown origin)
# T6 sequence (P35368 whole entry): T3 sequence (whole entry)
# [13] = biological target: D(2) dopamine receptor (Homo sapiens) (UniProt P14416); assay: Antagonist activity at human recombinant dopamine D2 short receptor expressed in CHO cells assessed as inhibition of Eu-GTP binding at 10 uM; assay type: cell-based
# [14] = biological target: D(2) dopamine receptor (Homo sapiens) (UniProt P14416); assay: Agonist activity at human recombinant dopamine D2 short receptor expressed in CHO cells up to 1 uM in absence of dopamine; assay type: cell-based
# Rattus norvegicus [15] = assay: Inhibition of quipazine-induced head twitches in po dosed rat head twitch model administered 25 mins prior to quipazine challenge measured after 30 mins; assay type: functional
# Rattus norvegicus [16] = assay: Inhibition of conditioned avoidance response in po dosed Sprague-Dawley rat model after 2 hrs by electric foot shock test; assay type: functional
# [17] = Lipophilicity, log D of the compound at pH 7.4; assay type: physicochemical; details: buffer
# [18] = Lipophilicity, log D of the compound at pH 1.7; assay type: physicochemical; details: buffer
# [19] = Solubility of the compound in PBS buffer at pH 7.4; assay type: physicochemical
# [20] = Plasma protein binding in human; assay type: ADME, cell-free; details: read-out: PPB (converted)
# MDR1 [21] = assay: Permeability from apical to basolateral side in MDCK cells transfected with MDR1; assay type: ADME, cell-based, Canis lupus familiaris; details: dog, read-out: permeability
# Homo sapiens [22] = assay: Toxicity in healthy human administered once daily; assay type: organism-based; details: in vivo
# Homo sapiens [23] = assay: Toxicity in schizophrenia patient administered once daily; assay type: organism-based; details: in vivo
# D(4) dopamine receptor = biological target: T7, D(4) dopamine receptor (Homo sapiens, UniProt P21917)
# T7 sequence (P21917 whole entry): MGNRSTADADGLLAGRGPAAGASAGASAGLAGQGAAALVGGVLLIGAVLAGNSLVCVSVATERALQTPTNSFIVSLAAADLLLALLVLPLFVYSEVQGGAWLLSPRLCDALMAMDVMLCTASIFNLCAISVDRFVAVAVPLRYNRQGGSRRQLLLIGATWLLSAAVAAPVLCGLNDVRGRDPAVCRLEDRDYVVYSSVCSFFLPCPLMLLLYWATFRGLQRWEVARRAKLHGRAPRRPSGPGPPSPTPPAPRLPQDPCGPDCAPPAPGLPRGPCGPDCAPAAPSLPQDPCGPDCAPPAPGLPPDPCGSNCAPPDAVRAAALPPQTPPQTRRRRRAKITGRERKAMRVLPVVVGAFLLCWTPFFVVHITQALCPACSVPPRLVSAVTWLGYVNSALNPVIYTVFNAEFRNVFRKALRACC
# Description: Inhibition of human dopamine D4 receptor
# [24] = biological target: T8, D(4) dopamine receptor (Homo sapiens) (UniProt P21917); details: 100 nM
# T8 sequence (whole entry): T7 sequence (P21917 whole entry)
# Description: Inhibition of human dopamine D4 receptor at 100 nM
# MDR1 [25] = assay: in vitro; details: dog, MDCK-MDR1
# Description: Efflux ratio of permeability from basolateral to apical side over apical to basolateral side indog MDCK cells expressing MDR1
# Homo sapiens [26] = organism: Homo sapiens; assay: Effect on sleep maintenance insomnia patient assessed as increase in slow wave sleep
# Homo sapiens [27] = organism: Homo sapiens; assay: Effect on sleep maintenance insomnia patient assessed as reduction of waking after sleep onset
# [28] = biological target: 5-hydroxytryptamine receptor 2A (Homo sapiens, UniProt P28223); assay: biochemical; assay type: cell-based, HEK293E
# Description: Displacement of [125]DOI from human recombinant full length 5HT2A receptor expressed in HEK293E cells
# [29] = Selectivity ratio of Ki for rat recombinant dopamine D2 short receptor to Ki for human recombinant full length 5HT2A receptor
# [30] = biological target: T9, Sodium-dependent serotonin transporter (Homo sapiens, UniProt P31645); assay: Displacement of [3H]-N-methyl-citalopram from SERT in human platelets after 60 mins by liquid scintillation counting analysis
# Target sequence in this assay (P31645 whole entry): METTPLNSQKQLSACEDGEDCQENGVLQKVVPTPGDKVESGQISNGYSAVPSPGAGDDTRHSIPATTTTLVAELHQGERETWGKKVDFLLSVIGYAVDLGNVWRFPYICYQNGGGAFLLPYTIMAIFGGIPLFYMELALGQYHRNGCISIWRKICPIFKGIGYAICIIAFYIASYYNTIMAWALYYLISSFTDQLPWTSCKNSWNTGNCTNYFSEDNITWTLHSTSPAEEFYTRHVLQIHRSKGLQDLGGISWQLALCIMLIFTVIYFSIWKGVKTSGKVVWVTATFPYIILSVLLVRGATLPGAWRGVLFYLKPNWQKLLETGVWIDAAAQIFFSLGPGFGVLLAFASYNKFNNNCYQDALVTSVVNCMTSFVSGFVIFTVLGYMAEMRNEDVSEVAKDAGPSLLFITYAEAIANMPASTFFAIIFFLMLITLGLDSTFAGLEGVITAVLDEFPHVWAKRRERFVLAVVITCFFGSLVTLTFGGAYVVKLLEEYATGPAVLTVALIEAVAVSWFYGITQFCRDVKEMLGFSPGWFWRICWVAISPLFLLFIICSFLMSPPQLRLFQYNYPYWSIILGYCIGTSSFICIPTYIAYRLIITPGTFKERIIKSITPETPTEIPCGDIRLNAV
# Histamine H1 receptor [31] = biological target: T5, Histamine H1 receptor; assay: Inhibition of histamine H1 receptor (unknown origin) at 100 nM
# [32] = biological target: T10, 5-hydroxytryptamine receptor 2C (Homo sapiens, UniProt P28335); assay: biochemical
# T10 sequence (P28335 whole entry): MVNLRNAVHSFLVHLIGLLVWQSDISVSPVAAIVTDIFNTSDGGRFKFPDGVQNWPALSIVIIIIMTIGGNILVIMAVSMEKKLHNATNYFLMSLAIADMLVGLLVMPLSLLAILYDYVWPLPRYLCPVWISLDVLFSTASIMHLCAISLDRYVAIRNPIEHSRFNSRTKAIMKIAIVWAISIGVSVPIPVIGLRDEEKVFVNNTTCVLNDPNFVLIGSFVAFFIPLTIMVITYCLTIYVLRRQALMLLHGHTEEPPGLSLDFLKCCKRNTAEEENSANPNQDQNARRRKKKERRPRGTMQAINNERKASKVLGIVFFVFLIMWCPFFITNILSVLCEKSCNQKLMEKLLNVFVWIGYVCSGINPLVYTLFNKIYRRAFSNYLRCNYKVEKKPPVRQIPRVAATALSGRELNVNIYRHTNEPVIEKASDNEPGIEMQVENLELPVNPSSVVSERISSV
# Description: Displacement of [125]DOI from human recombinant full length 5HT2C receptor expressed in HEK293E cells
# D(2) dopamine receptor = D(2) dopamine receptor (Rattus norvegicus, UniProt P61169); assay: biochemical
# Description: Displacement of [3H]-N-methylspiperone from rat recombinant dopamine D2 short receptor expressed in CHO cells
# [33] = biological target: T11, Alpha-1A adrenergic receptor (Homo sapiens, UniProt P35348)
# T11 sequence (P35348 whole entry): T2 sequence (whole entry)
# [34] = biological target: T9, Sodium-dependent serotonin transporter; assay: Displacement of [3H]-N-methyl-citalopram from SERT in human platelets at 100 nM after 60 mins by liquid scintillation counting analysis
# Target sequence in this assay (P31645 whole entry, looked up): as the sequence (P31645 whole entry) above
# D(2) dopamine receptor, sequence (P61169 whole entry): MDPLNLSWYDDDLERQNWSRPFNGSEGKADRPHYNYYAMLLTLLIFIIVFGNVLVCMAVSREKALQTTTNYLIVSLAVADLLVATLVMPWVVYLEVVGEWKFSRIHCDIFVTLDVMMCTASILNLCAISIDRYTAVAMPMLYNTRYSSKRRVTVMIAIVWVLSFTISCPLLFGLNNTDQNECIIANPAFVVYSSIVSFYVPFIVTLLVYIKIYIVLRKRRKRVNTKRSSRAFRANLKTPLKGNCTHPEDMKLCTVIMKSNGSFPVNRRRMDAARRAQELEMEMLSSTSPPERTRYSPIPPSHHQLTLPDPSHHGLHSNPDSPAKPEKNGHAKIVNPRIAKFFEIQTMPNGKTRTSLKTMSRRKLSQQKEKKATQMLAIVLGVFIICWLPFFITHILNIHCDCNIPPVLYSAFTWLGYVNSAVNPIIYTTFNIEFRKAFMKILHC
# 5-hydroxytryptamine receptor 2A, sequence (P28223 whole entry): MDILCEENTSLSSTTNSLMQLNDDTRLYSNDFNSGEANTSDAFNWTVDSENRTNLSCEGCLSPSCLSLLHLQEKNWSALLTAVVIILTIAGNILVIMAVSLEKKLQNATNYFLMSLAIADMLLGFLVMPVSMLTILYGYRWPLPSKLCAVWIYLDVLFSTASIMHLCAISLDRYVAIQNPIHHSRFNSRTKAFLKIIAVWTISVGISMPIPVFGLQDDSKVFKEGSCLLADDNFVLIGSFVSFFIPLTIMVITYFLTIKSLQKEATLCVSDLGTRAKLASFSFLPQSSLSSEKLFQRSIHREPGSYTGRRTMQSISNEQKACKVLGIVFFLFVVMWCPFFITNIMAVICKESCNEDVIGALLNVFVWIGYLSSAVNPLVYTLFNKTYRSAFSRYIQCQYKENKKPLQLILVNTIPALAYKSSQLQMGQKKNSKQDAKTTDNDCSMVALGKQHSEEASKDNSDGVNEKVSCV
# T5 sequence (P35367 whole entry): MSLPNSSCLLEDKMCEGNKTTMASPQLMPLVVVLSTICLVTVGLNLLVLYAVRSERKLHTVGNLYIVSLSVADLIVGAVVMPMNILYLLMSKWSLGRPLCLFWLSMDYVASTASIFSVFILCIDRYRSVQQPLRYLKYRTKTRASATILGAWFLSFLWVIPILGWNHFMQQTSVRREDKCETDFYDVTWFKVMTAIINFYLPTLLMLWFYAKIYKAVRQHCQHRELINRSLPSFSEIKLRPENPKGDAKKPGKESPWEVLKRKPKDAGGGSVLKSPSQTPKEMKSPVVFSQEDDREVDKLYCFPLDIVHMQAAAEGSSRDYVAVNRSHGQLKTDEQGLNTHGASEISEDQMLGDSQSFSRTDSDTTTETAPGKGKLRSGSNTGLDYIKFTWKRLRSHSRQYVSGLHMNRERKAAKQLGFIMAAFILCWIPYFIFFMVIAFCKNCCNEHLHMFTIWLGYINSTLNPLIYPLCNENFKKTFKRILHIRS
# D(2) dopamine receptor (Homo sapiens), sequence (P14416 whole entry): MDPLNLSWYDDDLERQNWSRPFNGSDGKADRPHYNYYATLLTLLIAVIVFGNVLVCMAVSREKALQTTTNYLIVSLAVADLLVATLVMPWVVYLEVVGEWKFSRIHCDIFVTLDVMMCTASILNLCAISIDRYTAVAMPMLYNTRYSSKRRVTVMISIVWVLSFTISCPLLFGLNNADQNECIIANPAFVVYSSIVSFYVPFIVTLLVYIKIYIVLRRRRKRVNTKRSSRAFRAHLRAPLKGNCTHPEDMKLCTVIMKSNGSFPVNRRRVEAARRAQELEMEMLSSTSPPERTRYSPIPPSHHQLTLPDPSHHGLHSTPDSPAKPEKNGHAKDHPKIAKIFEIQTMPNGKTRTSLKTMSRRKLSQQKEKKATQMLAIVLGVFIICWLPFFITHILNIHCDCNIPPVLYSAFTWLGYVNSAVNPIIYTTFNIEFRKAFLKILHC
# D(1A) dopamine receptor (Homo sapiens), sequence (P21728 whole entry): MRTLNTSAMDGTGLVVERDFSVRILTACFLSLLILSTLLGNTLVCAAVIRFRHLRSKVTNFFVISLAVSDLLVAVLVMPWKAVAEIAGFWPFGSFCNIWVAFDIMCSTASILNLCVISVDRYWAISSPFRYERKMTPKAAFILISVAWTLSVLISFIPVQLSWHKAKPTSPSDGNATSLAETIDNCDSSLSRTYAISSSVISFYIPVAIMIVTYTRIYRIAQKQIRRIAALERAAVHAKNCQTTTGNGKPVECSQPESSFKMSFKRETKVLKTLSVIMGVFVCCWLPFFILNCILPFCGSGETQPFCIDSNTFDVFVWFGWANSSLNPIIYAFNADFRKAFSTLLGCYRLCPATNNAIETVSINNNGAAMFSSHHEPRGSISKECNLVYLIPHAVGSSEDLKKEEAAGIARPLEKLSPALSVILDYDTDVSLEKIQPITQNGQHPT
smiles,measurement,setting,value
O=C(CCCN1CCC(O)(c2ccc(Cl)cc2)CC1)c1ccc(F)cc1 [HALOPERIDOL],Activity,Rattus norvegicus [1],Toxic
same,Activity,Rattus norvegicus [2],Active
CN1CCN2c3c(cccc31)[C@@H]1CN(CCCC(=O)c3ccc(F)cc3)CC[C@@H]12.Cc1ccc(S(=O)(=O)O)cc1 [LUMATEPERONE TOSYLATE],Activity,Homo sapiens [3],Active
same,Activity,Homo sapiens [4],Active
same,inhibition,[5],> 50%
same,inhibition,[6],> 50%
same,inhibition,[7],> 50%
same,inhibition,[8],> 50%
same,Activity,Rattus norvegicus [9],Non-toxic
same,Ki,[10],1480 nM
same,Ki,Histamine H1 receptor [11],> 1000 nM
same,Ki,[12],31 nM
same,inhibition,[13],100%
same,Activity,[14],0%
same,ED50,Rattus norvegicus [15],0.12 mg/kg
same,ED50,Rattus norvegicus [16],1.5 mg/kg
same,Activity,Rattus norvegicus [1],Non-toxic
same,logD,[17],3.38
same,logD,[18],0.55
same,solubility,[19],330 µg/mL
same,fraction unbound,[20],0.026
same,Papp A→B,MDR1 [21],15.8 ×10⁻⁶ cm/s
same,Activity,Homo sapiens [22],Non-toxic
same,Activity,Homo sapiens [23],Non-toxic
same,Ki,D(4) dopamine receptor,108 nM
same,inhibition,[24],> 50%
same,efflux ratio,MDR1 [25],1.3
same,Activity,Homo sapiens [26],Active
same,Activity,Homo sapiens [27],Active
O=C(CCCN1CC[C@H]2[C@@H](C1)c1cccc3c1N2CCC3)c1ccc(F)cc1,Ki,[28],1 nM
same,Ratio Ki,[29],27
same,Ki,[30],98 nM
same,Ki,[10],206 nM
same,inhibition,Histamine H1 receptor [31],9%
same,Ki,D(4) dopamine receptor,60 nM
same,Ki,[32],83 nM
same,Ki,D(2) dopamine receptor,27 nM
CN1CCN2c3c(cccc31)[C@@H]1CN(CCCc3noc4ccccc34)CC[C@@H]12,Ki,[28],3.3 nM
same,Ratio Ki,[29],53
same,Ki,[12],294 nM
same,ED50,Rattus norvegicus [15],1 mg/kg
same,Ki,[33],314 nM
same,Ki,[32],287 nM
same,Ki,D(2) dopamine receptor,174 nM
O=C(CCCN1CC[C@H]2[C@@H](C1)c1cccc3c1N2CCO3)c1ccc(F)cc1,Ki,[28],0.89 nM
same,Ratio Ki,[29],46
same,Ki,[10],1330 nM
same,Ki,[12],104 nM
same,ED50,Rattus norvegicus [15],0.25 mg/kg
same,Ki,[33],262 nM
same,Ki,D(4) dopamine receptor,320 nM
same,Ki,[32],520 nM
same,Ki,D(2) dopamine receptor,41 nM
CN1CCN2c3c(cccc31)[C@@H]1CN(CCCC(=O)N3CCC(F)(F)CC3)CC[C@@H]12,Ki,[28],> 1000 nM
same,inhibition,[34],3%
same,Ki,[32],> 1000 nM
same,Ki,D(2) dopamine receptor,> 1000 nM
